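Exposure lasted 48 hours, with cells grown in 96-well plates and compounds tested at five concentrations. Definition used: TGI = concentration required for complete inhibition of growth.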
Key:
Assay in all cases: NCI anticancer screen, dose series, 48 h
CCRF-CEM leukemia = test system: CCRF-CEM leukemia
786-0 renal = test system: 786-0 renal
UO-31 renal = test system: UO-31 renal
SK-OV-3 ovarian = test system: SK-OV-3 ovarian
MOLT-4 leukemia = test system: MOLT-4 leukemia
SF-295 CNS = test system: SF-295 CNS
SK-MEL-5 melanoma = test system: SK-MEL-5 melanoma
DU-145 prostate = test system: DU-145 prostate
NCI-H460 lung = test system: NCI-H460 lung
MDA-MB-435 = test system: MDA-MB-435
UACC-257 melanoma = test system: UACC-257 melanoma
RPMI-8226 leukemia = test system: RPMI-8226 leukemia
SW-620 colon = test system: SW-620 colon
COLO 205 colon = test system: COLO 205 colon
NCI/ADR-RES ovarian = test system: NCI/ADR-RES ovarian
HOP-62 NSCLC = test system: HOP-62 NSCLC
OVCAR-4 ovarian = test system: OVCAR-4 ovarian
OVCAR-8 ovarian = test system: OVCAR-8 ovarian
HCT-15 colon = test system: HCT-15 colon
NCI-H226 lung = test system: NCI-H226 lung
SN12C renal = test system: SN12C renal
SNB-75 CNS = test system: SNB-75 CNS
K-562 leukemia = test system: K-562 leukemia
HCT-116 colon = test system: HCT-116 colon
EKVX NSCLC = test system: EKVX NSCLC
M14 melanoma = test system: M14 melanoma
U251 CNS = test system: U251 CNS
UACC-62 melanoma = test system: UACC-62 melanoma
LOX IMVI melanoma = test system: LOX IMVI melanoma
PC-3 prostate = test system: PC-3 prostate
OVCAR-5 ovarian = test system: OVCAR-5 ovarian
SF-268 CNS = test system: SF-268 CNS
TK-10 renal = test system: TK-10 renal
SK-MEL-2 melanoma = test system: SK-MEL-2 melanoma
HT29 colon = test system: HT29 colon
RXF 393 renal = test system: RXF 393 renal
MDA-N = test system: MDA-N
MDA-MB-231 breast = test system: MDA-MB-231 breast
OVCAR-3 ovarian = test system: OVCAR-3 ovarian
HS 578T breast = test system: HS 578T breast
NCI-H23 lung = test system: NCI-H23 lung
ACHN renal = test system: ACHN renal
SNB-19 CNS = test system: SNB-19 CNS
HCC-2998 colon = test system: HCC-2998 colon
T-47D breast = test system: T-47D breast
BT-549 breast = test system: BT-549 breast
KM12 colon = test system: KM12 colon
A549 NSCLC = test system: A549 NSCLC
HL-60(TB) leukemia = test system: HL-60(TB) leukemia
HOP-92 NSCLC = test system: HOP-92 NSCLC
CAKI-1 renal = test system: CAKI-1 renal
SK-MEL-28 melanoma = test system: SK-MEL-28 melanoma
SF-539 CNS = test system: SF-539 CNS
MALME-3M melanoma = test system: MALME-3M melanoma
MCF7 breast = test system: MCF7 breast

SMILES: Cc1cn(C(=O)NC23CC4CC(CC(C4)C2)C3)c(=O)[nH]c1=O
- TGI (CCRF-CEM leukemia): 74.5 µM
- TGI (786-0 renal): > 100 µM
- TGI (UO-31 renal): > 100 µM
- TGI (SK-OV-3 ovarian): > 100 µM
- TGI (MOLT-4 leukemia): 89.1 µM
- TGI (SF-295 CNS): > 100 µM
- TGI (SK-MEL-5 melanoma): > 100 µM
- TGI (DU-145 prostate): > 100 µM
- TGI (NCI-H460 lung): > 100 µM
- TGI (MDA-MB-435): > 100 µM
- TGI (UACC-257 melanoma): > 100 µM
- TGI (RPMI-8226 leukemia): 75.1 µM
- TGI (SW-620 colon): > 100 µM
- TGI (COLO 205 colon): 75.5 µM
- TGI (NCI/ADR-RES ovarian): 86.6 µM
- TGI (HOP-62 NSCLC): > 100 µM
- TGI (OVCAR-4 ovarian): > 100 µM
- TGI (OVCAR-8 ovarian): > 100 µM
- TGI (HCT-15 colon): 80.3 µM
- TGI (NCI-H226 lung): 65.7 µM
- TGI (SN12C renal): > 100 µM
- TGI (SNB-75 CNS): > 100 µM
- TGI (K-562 leukemia): > 100 µM
- TGI (HCT-116 colon): > 100 µM
- TGI (EKVX NSCLC): 65.5 µM
- TGI (M14 melanoma): > 100 µM
- TGI (U251 CNS): > 100 µM
- TGI (UACC-62 melanoma): 71.4 µM
- TGI (LOX IMVI melanoma): 83 µM
- TGI (PC-3 prostate): > 100 µM
- TGI (OVCAR-5 ovarian): > 100 µM
- TGI (SF-268 CNS): > 100 µM
- TGI (TK-10 renal): > 100 µM
- TGI (SK-MEL-2 melanoma): 76.3 µM
- TGI (HT29 colon): > 100 µM
- TGI (RXF 393 renal): > 100 µM
- TGI (MDA-N): > 100 µM
- TGI (MDA-MB-231 breast): 61.3 µM
- TGI (OVCAR-3 ovarian): > 100 µM
- TGI (HS 578T breast): > 100 µM
- TGI (NCI-H23 lung): > 100 µM
- TGI (ACHN renal): 94.1 µM
- TGI (SNB-19 CNS): > 100 µM
- TGI (HCC-2998 colon): > 100 µM
- TGI (T-47D breast): > 100 µM
- TGI (BT-549 breast): 86.1 µM
- TGI (KM12 colon): > 100 µM
- TGI (A549 NSCLC): > 100 µM
- TGI (HL-60(TB) leukemia): 51.2 µM
- TGI (HOP-92 NSCLC): > 100 µM
- TGI (CAKI-1 renal): > 100 µM
- TGI (SK-MEL-28 melanoma): > 100 µM
- TGI (SF-539 CNS): > 100 µM
- TGI (MALME-3M melanoma): > 100 µM
- TGI (MCF7 breast): > 100 µM

— PubChem BioAssay (NCI)
